The results in this text go back to patent US10316050B2, “PT (IV) complexes containing 4,4′-disubstituted-2,2′-bipyridyl and their use in cancer therapy” (THE BOARD OF REGENTS OF THE NEVADA SYSTEM OF HIGHER …, priority 2014, dated 2019).

The test system of series [1] is SK-BR-3 breast cancer cells. Nature of the series: MTS cell viability assay, SK-BR-3. The class given is cell-based, human. The note with it: read-out: EC50 (effective concentration that resulted in 50% cell viability). The gist of the method:
(§1)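 SK-BR-3 cells grown in MEM, DU145 and PC-3 cells in RPMI-1640, each with 10% FBS and 25 mM HEPES pH 7.4, plated 2 days to ~50% confluence. Exposure to increasing Pt complex or cisplatin/carboplatin concentrations for 1 h (washed, then 2 days recovery) or 48 h continuous. MTS absorbance at 490 nm after 4 h; viability as percent of control.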
(Tetrazolium dyes change colour on reduction, which living cells bring about.)

In series [2] the test system is MCF-7 breast cancer cells. Nature of the series: MTS cell viability assay, MCF-7. In kind it is cell-based, human. The note with it: read-out: EC50 (effective concentration that resulted in 50% cell viability). An outline of the steps:
(§2)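 Increasing compound concentrations are applied to subconfluent (~50%) monolayers in MEM with 10% FBS and HEPES (pH 7.4) for 1 h, with 2-day washout, or for 48 h. MTS conversion over 4 h at 37 °C is read at 490 nm and normalised to control.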

Series [3] in a line: Maximum tolerated dose study in a mouse model. In kind it is in vivo. The note with it: intraperitoneal administration, 12.5 mg/kg/day for three days. On the procedure:
As described herein, the platinum complexes provided herein can be used to reduce the viability of cancer cells. […] One of these compounds, Pt(II)-4C, was tested in vivo in a mouse model to determine the maximum tolerated dose. […] Here, a series of Pt(IV) derivatives having improved solubility in DMSO and, in some instances, increased activity compared to their Pt(II) counterparts is described.

Series [4] deals with ZR-75-1 breast cancer cells. Nature of the series: MTS cell viability assay, ZR-75-1. The class given is cell-based, human. The note with it: read-out: EC50 (effective concentration that resulted in 50% cell viability). The gist of the method:
as §2

Series [5] concerns T-47D breast cancer cells. Nature of the series: MTS cell viability assay, T-47D. In kind it is cell-based, human. An outline of the steps: as §2
In the next series the test system is A549 lung cancer cells. Nature of the series: MTS cell viability assay, A549. In kind it is cell-based, human. The note with it: read-out: EC50 (effective concentration that resulted in 50% cell viability). An outline of the steps:
as §2

For series [6], the system named is MDA-MB-231 breast cancer cells. Nature of the series: MTS cell viability assay, MDA-MB-231. In kind it is cell-based, human. The note with it: read-out: EC50 (effective concentration that resulted in 50% cell viability). An outline of the steps: as §2
The subject of a further series is H520 lung cancer cells. Nature of the series: MTS cell viability assay, H520. The class given is cell-based, human. The note with it: read-out: EC50 (effective concentration that resulted in 50% cell viability). An outline of the steps:
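Two exposure schemes were used: a 1 h treatment followed by washing and 2 days' regrowth, and a 48 h continuous treatment. Viability was then measured colorimetrically with MTS reagent (4 h, 490 nm) relative to solvent controls.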

The nature of series [7]: Solubility in DMSO and common organic solvents. The class given is physicochemical. On the procedure:
Coordination of the axial ligands to the Pt center improved the solubility of the complexes in common organic solvents. DMSO solutions of the Pt(IV) complexes with concentrations of 10 mM or higher were obtainable, whereas the Pt(II) can only be made at the highest concentration of 5 mM.

The nature of series [8]: Solubility in water and culture medium. The class given is physicochemical. The note with it: water. On the procedure: It should be noted that while the solubility of the Pt(IV) complexes in organic solvents were increased compared to their Pt(II) precursors, they were still poorly soluble in water. Thus, Pt(IV)-1C to Pt(IV)-3C were limited to a highest concentration of 100 μM. […] Testing of Pt(IV)4C therefore was limited to 25 μM.

Series [9] relates to HCC38 breast cancer cells. Nature of the series: MTS cell viability assay, HCC38. In kind it is cell-based, human. The note with it: read-out: EC50 (effective concentration that resulted in 50% cell viability). An outline of the steps: as §2
In series [10] the test system is DU145 prostate cancer cells. In kind it is cell-based, human. The note with it: read-out: EC50 (effective concentration that resulted in 50% cell viability). An outline of the steps: as §1
For series [11], the system named is PC-3 prostate cancer cells. Nature of the series: MTS cell viability assay, PC-3. The note with it: read-out: EC50 (effective concentration that resulted in 50% cell viability). The class given is cell-based, human. The gist of the method:
as §1

Structures are written as SMILES. Where two headings read alike, the source gives them in different places.

On to `CCCCOc1ccnc(-c2cc(OCCCC)ccn2)c1.[Cl][Pt][Cl]` [Pt(II)-4C], for which the EC50 came out at 5 ± 4 µM in series [1] (SK-BR-3, 1 h treatment, Table 2); 2.1 ± 0.2 µM in series [1] (SK-BR-3, 48 h treatment, Table 4); 22 ± 2 µM in series [2] (MCF-7, 1 h treatment, Table 2); 13 ± 1 µM in series [2] (MCF-7, 48 h treatment, Table 4); 21 ± 2 µM in [4] (ZR-75-1, 1 h treatment, Table 2); 6 ± 0.9 µM in series [4] (ZR-75-1, 48 h treatment, Table 4). In addition, the EC50 in series [5] (1 h treatment, Table 2, read-out: EC50 (effective concentration that resulted in 50% cell viability)) was 12 ± 7 µM; in [5] (48 h treatment, Table 4, read-out: EC50 (effective concentration that resulted in 50% cell viability)), 2.3 ± 0.4 µM; in the series with A549 lung cancer cells (A549, 1 h treatment, Table 2) it was 17 ± 1 µM; in the series with A549 lung cancer cells (A549, 48 h treatment, Table 4), 15.4 ± 0.5 µM; in series [6] (MDA-MB-231, 1 h treatment, Table 2), 4 ± 3 µM; in series [6] (MDA-MB-231, 48 h treatment, Table 4) it was 2.4 ± 0.6 µM. Also, the EC50 amounted to 20 ± 1 µM in the series on H520 lung cancer cells (H520, 1 h treatment, Table 2); 14 ± 6 µM with H520 lung cancer cells (H520, 48 h treatment, Table 4); 12 ± 6 µM in series [9] (HCC38, 1 h treatment, Table 2); 7.3 ± 3 µM in [9] (HCC38, 48 h treatment, Table 4); 12 ± 8 µM in series [10] (DU145, 1 h treatment, Table 2); 5 ± 2 µM in series [10] (DU145, 48 h treatment, Table 4). The EC50 in series [11] (PC-3, 1 h treatment, Table 2) was 11 ± 2 µM; in series [11] (PC-3, 48 h treatment, Table 4) it was 7.4 ± 0.5 µM. For the same molecule, the “survival of the animals” value in series [3] is recorded as “survived for seven days”. For the same molecule, in series [7], the “solubility in DMSO and other common organic solvents (in words)” value is listed as “only moderate solubility in common organic solvents”. Also, in series [8], the “solubility in water (in words)” value is reported as “poor solubility in water”.
